Key:
Test in all cases: Mass spectroscopy proteomics, semi-quantitative binding affinity of serum proteins (plaqueproteome, Table 2)
Conditions in all cases: higher number = stronger affinity
[1] = target: T1, Abeta-42 plaque particles (Homo sapiens, UniProt P05067)
T1 construct: Abeta 1-42
Experimental: Next to isolate serum derived Abeta-42 plaque particles, the plasma or serum samples obtained from AD subjects were first centrifuged at 5,000 rpm for 5 min and the supernatants were transferred to new centrifuge tubes. Next, the supernatants were diluted in PBS to make 50% of the serum and plasma samples and used for incubation with Abeta-42 plaque oligomers/aggregates. Each assay was performed in 1 mL reaction (800 μL of 50% plasma or serum) and 200 μL (30 μg) of the Abeta-42 aggregates and the mixtures were incubated at 37° C. for 1 hr. To the mixture Thioflavin S dye (120 μg) was added and the sample was incubated for additional 30 min at 37° C. After the incubation, the mixture was directly used for sample acquisition using flow cytometer (FACS ARIA II, BD Biosciences, San Jose, Calif.). After initial detection of Abeta-42 plaque particles in the acquisition blot, gates were drawn in fluorescent dot blot to separately sort and isolate fluorescently labeled Abeta-42 particles.
(§1) For preparing trypsin digested peptide sequences, the isolated plaque particles were centrifuged at 10000 rpm for 5 min and the pellet containing plaque particles was resuspended in 100 μl PBS buffer. Stock solutions of digestion buffer (Ammonium Biocarbonate 50 mM), reducing buffer (DDT 100 mM) and alkylation buffer (lodoaceamide 100 mM) were prepared and stored at −20° C. for up to two months. For trypsin digestion, 100 μl of each plaque particles (2000 of Abeta-42, cholesterol, Tau and alpha-synuclein) were precipitated using cold acetone −80° C. by adding 4X's the volume. The samples were placed on dry ice for 10 min with intermittent vortex. Next, the samples were centrifuged at 4° C. at 10000 G for 10 min. Top layer of acetone was carefully removed from the tube with care not to disturb the plaque particles pellet. The samples were speed-vac for 10 min to ensure all acetone has been boiled away. The plaque particles pellet were reconstituted with 15 μl 8M Urea 100 mM Ammonium bicarbonate stock and 20 μl protease max solution. The protease max solution (Promega, Madison, Wis.) was prepared from stock by adding 60 μl 50 mM Ammonium bicarbonate and used for 3 solution digests (20 μl each). […] The tubes were incubated at 55° C. for 30 minutes. The tubes were then removed and brought to the room temperature followed by addition of 3.2 μl of 1M acrylamide and incubated at room temperature for 30 minutes. To the sample, 63 μL of 50 mM Ammonium bicarbonate was added for a final volume of 98 μl and 2 μl of trypsin (10 μg, Trypsin/Lys C Mix). After mixing the solution with pipet the samples were incubated at 37° C. overnight. After the overnight digest, the tryptic digest were quenched and acidified by adding 10 μl of 50% formic acid/water stock dilution. The samples were centrifuged at 10000 G for 2 minutes and purified using stage tip and used for MS/Mass analysis.
(§2) All MS/MS samples were analyzed using Sequest (Thermo Fisher Scientific, San Jose, Calif., USA; version 1.0). Sequest was set up to search the SUMS_uniprot_Human database (35847 entries) assuming the digestion enzyme strict trypsin. Sequest was searched with a fragment ion mass tolerance of 1.00 Da and a parent ion tolerance of 20 PPM. Propionamide of cysteine was specified in Sequest as a fixed modification. Oxidation of methionine and phospho of serine, threonine and tyrosine were specified in Sequest as variable modifications.
Scaffold (version Scaffold_4.2.1, Proteome Software Inc., Portland, Oreg.) was used to validate MS/MS based peptide and protein identifications. […] Protein probabilities were assigned by the Protein Prophet algorithm (Nesvizhskii, Al et al 2003). […] Proteins sharing significant peptide evidence were grouped into clusters. Proteins were annotated with GO terms from NCBI (downloaded Jan. 17, 2014).

[2] = system: High Density cholesterol (Chl Large) plaque particles; design: species or system human
Experimental: (§3) The goal was to isolate plaque particles synthesized in the bio-fluids in a relatively pure form to enable their subsequent use for identification of components that contribute to the plaque formation. In order to isolate cholesterol plaque particles, the plasma or serum samples obtained from atherosclerotic subjects were first centrifuged at 5,000 rpm for 5 min and the supernatants were transferred to new centrifuge tubes. Next, the supernatants were diluted in PBS to make 50% of the serum and used for incubation with cholesterol oligomers/aggregates. Each assay was performed in 1 mL reaction (800 μL of 50% plasma or serum) and 200 μL (30 μg) of the Cholesterol aggregates and the mixtures were incubated at 37° C. for 1 hr After the incubation, the mixture was directly used for sample acquisition using flow cytometer (FACS ARIA II, BD Biosciences, San Jose, Calif.). […] In order to isolate these fractions, three sets of gates were drawn in the acquisition blot to separately sort and isolate High density or high complex cholesterol particles, Low density or low complex cholesterol particles and both High and low density cholesterol particles together.
as §1, §2
(§4) Scaffold (version Scaffold_4.2.1, Proteome Software Inc., Portland, Oreg.) was used to validate MS/MS based peptide and protein identifications. […] Protein probabilities were assigned by the Protein Prophet algorithm (Nesvizhskii, Al et al 2003).

[3] = system: Low density cholesterol (Chl small) plaque particles; design: species or system human
Experimental: as §3, §1, §2, §4

[4] = target: T2, alpha-synuclein plaque particles (Homo sapiens, UniProt P37840)
T2 construct: 140 amino acids polypeptide
Experimental: To prepare oligomers/aggregates of human alpha-synuclein (140 amino acids polypeptide), 1 mg of the recombinant alpha-synuclein protein was suspended in 1 mL of PBS and the sample was incubated at 37° C. for 2 hrs. After incubation, all the samples were centrifuged for 5 min. at 5000 rpm to remove precipitate, if any, and the supernatant containing oligomers/aggregates were used in vitro plaque particles formation assay. For detecting alpha-synuclein plaque particles Thioflavin S (Ex/Em=430 nm/550 nm) amyloid binding fluorescent dye (10 μg) was used.
Similarly, to isolate alpha-synuclein plaque particles, diluted plasma or serum samples obtained from AD subjects were used for incubation with alpha-synuclein plaque oligomers/aggregates. Each assay was performed in 1 mL reaction (800 μL of 50% plasma or serum) and 200 μL (30 μg) of the alpha-synuclein aggregates and the mixtures were incubated at 37° C. for 1 hr. To the mixture Thioflavin S dye (120 μg) was added and the sample was incubated for additional 30 min at 37° C. After the incubation, the mixture was directly used for sample acquisition using flow cytometer (FACS ARIA II, BD Biosciences, San Jose, Calif.). After initial detection of alpha-synuclein plaque particles, gates were drawn in the acquisition blot to separately sort and isolate fluorescently labeled alpha-synuclein particles.
as §1, §2
Scaffold (version Scaffold_4.2.1, Proteome Software Inc., Portland, Oreg.) was used to validate MS/MS based peptide and protein identifications.

Tau plaque particles = system: Tau plaque particles; design: species or system human
Experimental: For Tau-74 (74-102) (Exon 3/Insert 2 domain) preparation, 1 mg of Tau-74 was suspended in 1 mL of PBS and the sample was incubated at 37° C. for 2 hrs. Similarly for preparing Tau-275 (275-305) (Repeat 2 domain) 1 mg of the peptide was suspended in 1 mL of PBS and the sample was incubated at 37° C. for 2 hrs. After incubation, all the samples were centrifuged for 5 min. at 5000 rpm to remove precipitate, if any, and the supernatant containing oligomers/aggregates were used for in vitro amyloid plaque particles formation assay. For detecting Tau plaque particles, Thioflavin S (Ex/Em=430 nm/550 nm) amyloid binding fluorescent dye (10 μg) was used in the assay.
Next, to isolate Tau plaque particles, as performed for Abeta-42 and Abeta-28 plaque particles isolation, diluted serum samples were used for incubation separately with Tau-45, Tau-74 and Tau-275 oligomers/aggregates. Each assay was performed in 1 mL reaction (800 μL of 50% plasma or serum) and 200 μL (30 μg) of each Tau aggregates and the mixtures were incubated at 37° C. for 1 hr. To the each mixture Thioflavin S dye (120 μg) was added and the sample was incubated for additional 30 min at 37° C. After the incubation, each sample was directly used for sample acquisition using flow cytometer (FACS ARIA II, BD Biosciences, San Jose, Calif.). After initial detection of Tau plaque particles, gates were drawn in the acquisition blot to separately sort and isolate fluorescently labeled Tau plaque particles.
as §1, §2

Substance | Semi-quantitative analysis of proteins binding to different plaque particles: Abeta-42 [1] | Semi-quantitative analysis of proteins binding to different plaque particles: Chl Large [2] | Semi-quantitative analysis of proteins binding to different plaque particles: Chl small [3] | Semi-quantitative analysis of proteins binding to different plaque particles: Synuclein [4] | Semi-quantitative analysis of proteins binding to different plaque particles: Tau (Tau plaque particles)
Tropomyosin alpha-3 chain | 5 | 0 | 0 | 0 | 0
Apolipoprotein A-II | 5 | 8 | 6 | 7 | 10
Ig lambda chain V-IV region Hil | 0 | 0 | 1 | 0 | 1
Antithrombin-III | 5 | 8 | 6 | 9 | 6
Complement component C8 alpha chain | 0 | 3 | 2 | 0 | 0
Complement C5 | 0 | 5 | 3 | 4 | 1
Ig lambda-2 chain C regions | 9 | 5 | 7 | 8 | 10
Ig lambda-6 chain C region | 5 | 3 | 3 | 6 | 5
Ig kappa chain V-I region Wes | 2 | 2 | 1 | 2 | 2
Apolipoprotein E | – | 7 | 9 | 8 | 13
Cluster of Alpha-1-antitrypsin | – | 22 | 21 | 20 | 28
Alpha-1-antitrypsin | – | 22 | 21 | 20 | 28
